Reference: paper PMC9861803, “A New ABCB1 Inhibitor Enhances the Anticancer Effect of Doxorubicin in Both In Vitro and In Vivo Models of NSCLC” (International Journal of Molecular Sciences, 2023)

Columns and labels:
[1] = target: ABCA1 (Mus musculus, UniProt P41233); assay: radiolabelled cholesterol efflux to apoA-I from murine peritoneal macrophages; format: cell-based
[2] = target: T1, breast cancer resistant protein (BCRP, ABCG2) (Homo sapiens, UniProt Q9UNQ0); assay: Hoechst […] accumulation assay in H460 cells; format: cell-based
T1 sequence (Q9UNQ0 1-655): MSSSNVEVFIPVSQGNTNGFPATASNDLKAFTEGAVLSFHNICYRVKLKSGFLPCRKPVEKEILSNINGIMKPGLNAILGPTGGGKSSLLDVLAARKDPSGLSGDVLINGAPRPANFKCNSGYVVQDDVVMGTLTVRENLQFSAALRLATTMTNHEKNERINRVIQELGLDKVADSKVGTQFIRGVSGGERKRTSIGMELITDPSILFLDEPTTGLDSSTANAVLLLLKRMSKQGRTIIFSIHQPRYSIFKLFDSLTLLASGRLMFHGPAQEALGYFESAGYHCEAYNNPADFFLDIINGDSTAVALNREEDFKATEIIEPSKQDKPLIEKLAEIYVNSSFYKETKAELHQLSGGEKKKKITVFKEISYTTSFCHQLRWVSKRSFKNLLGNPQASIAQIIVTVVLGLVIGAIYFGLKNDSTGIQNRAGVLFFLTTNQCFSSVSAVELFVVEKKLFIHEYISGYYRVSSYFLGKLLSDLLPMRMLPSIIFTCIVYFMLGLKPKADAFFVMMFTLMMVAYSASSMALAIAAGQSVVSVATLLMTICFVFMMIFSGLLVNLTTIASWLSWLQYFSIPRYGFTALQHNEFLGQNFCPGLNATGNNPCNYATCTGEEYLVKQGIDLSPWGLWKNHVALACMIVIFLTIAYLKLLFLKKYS

Sequence of ABCA1 (P41233 whole entry): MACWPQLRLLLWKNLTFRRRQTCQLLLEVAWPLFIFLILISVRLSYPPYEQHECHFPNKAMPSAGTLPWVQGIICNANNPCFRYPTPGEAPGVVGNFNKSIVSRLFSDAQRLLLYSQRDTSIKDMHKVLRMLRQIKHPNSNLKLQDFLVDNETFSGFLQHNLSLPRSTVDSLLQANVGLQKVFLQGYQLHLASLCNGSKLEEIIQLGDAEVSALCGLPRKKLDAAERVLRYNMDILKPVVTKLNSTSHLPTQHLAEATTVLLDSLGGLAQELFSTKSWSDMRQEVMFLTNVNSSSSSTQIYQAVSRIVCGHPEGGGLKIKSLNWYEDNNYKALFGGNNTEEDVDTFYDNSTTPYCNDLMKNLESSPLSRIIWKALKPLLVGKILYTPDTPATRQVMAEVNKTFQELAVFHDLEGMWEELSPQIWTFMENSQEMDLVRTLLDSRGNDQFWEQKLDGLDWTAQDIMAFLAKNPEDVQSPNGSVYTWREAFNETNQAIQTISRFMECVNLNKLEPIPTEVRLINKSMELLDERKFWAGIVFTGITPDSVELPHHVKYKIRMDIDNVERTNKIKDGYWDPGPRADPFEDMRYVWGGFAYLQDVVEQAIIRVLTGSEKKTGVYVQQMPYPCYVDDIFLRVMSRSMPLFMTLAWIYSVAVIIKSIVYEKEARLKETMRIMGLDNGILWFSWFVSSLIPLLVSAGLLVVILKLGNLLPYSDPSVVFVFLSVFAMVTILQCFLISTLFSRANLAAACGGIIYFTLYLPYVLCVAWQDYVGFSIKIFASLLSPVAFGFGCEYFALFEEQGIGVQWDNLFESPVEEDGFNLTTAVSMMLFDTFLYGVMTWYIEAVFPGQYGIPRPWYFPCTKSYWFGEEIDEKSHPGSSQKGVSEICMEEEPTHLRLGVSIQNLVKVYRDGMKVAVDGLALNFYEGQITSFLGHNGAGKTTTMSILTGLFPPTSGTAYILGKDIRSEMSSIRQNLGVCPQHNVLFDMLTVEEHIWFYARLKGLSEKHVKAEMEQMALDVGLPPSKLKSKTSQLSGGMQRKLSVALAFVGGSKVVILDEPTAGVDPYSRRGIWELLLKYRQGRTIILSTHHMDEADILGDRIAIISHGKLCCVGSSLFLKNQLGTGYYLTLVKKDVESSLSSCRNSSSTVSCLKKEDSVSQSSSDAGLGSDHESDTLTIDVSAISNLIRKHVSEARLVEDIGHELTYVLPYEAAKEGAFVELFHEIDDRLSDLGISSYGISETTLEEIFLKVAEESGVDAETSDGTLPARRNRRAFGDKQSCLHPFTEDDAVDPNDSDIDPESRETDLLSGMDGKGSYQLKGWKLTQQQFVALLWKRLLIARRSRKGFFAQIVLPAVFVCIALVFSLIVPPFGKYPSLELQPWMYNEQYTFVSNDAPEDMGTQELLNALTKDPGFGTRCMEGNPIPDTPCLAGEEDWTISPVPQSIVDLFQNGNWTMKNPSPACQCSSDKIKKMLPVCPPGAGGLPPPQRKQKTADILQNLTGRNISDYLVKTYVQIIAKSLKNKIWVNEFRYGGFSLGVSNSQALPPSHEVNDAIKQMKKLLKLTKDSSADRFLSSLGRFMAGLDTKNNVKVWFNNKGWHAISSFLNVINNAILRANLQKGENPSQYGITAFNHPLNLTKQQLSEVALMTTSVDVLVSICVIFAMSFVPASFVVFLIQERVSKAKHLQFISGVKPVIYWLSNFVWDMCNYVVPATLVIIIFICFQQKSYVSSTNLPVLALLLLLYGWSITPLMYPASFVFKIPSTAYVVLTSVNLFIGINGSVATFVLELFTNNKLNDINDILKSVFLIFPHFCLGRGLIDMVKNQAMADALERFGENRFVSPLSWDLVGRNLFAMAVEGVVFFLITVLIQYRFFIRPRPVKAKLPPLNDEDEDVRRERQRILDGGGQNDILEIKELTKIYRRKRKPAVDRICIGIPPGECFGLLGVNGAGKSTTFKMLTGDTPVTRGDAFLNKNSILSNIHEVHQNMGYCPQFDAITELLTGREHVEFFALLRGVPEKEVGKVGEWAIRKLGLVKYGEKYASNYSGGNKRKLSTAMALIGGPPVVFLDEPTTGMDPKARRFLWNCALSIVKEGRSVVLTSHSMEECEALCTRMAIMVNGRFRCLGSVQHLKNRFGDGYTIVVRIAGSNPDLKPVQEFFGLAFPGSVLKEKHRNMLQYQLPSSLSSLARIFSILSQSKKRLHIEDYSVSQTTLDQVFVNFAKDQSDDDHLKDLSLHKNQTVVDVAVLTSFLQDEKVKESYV

SMILES | radiolabelled cholesterol efflux to apoA-I from murine peritoneal macrophages [1] | Hoechst 33342 accumulation assay in H460 cells [2]
CC(C)(Sc1cc(C(C)(C)C)c(O)c(C(C)(C)C)c1)Sc1cc(C(C)(C)C)c(O)c(C(C)(C)C)c1 [probucol] | probucol, the lead compound, significantly inhibited in a dose-dependent manner the ABCA1 activity | 
COc1ccc2c3c([nH]c2c1)[C@H](C=C(C)C)N1C(=O)[C@@H]2CCCN2C(=O)[C@@H]1C3 [fumetrimorgin C] |  | the reference compound fumetrimorgin C, as expected, significantly inhibited the amount of Hoechst 33342-caused intracellular fluorescence
